In article PMC11995724, “Antibiotic target discovery by integrated phenotypic and activity-based profiling of electrophilic fragments” (Cell chemical biology, 2025) one finds viability data, which are given here for 49 molecules.

Each structure is given as a SMILES string.

The data set can be described thus: in vitro. The settings on record: human, hek293t cells.
Take `CC(Cl)C(=O)N(C)Cc1ccccc1` (stereo not shown) [6-I13, N-benzyl-2-chloro-N-methylpropanamide]: the viability at 48 h, 25 µM was 105%. To `COC(=O)c1c(C(=O)CCl)c(C)n(C(C)C)c1C` [10-K21, methyl 4-(2-chloroacetyl)-2,5-dimethyl-1-(propan-2-yl)-1H-pyrrole-3-carboxylate] belongs 71.2%.

In the case of `CC(Cl)C(=O)N1CCn2cccc2C1c1ccccc1` (stereo not shown) [7-E11, 2-chloro-1-{1-phenyl-1H,2H,3H,4H-pyrrolo[1,2-a]pyrazin-2-yl}propan-1-one], the viability at 48 h, 25 µM turned out to be 97.1%. To `CCCN(CC1CC1)C(=O)CCl` [5-H11, 2-chloro-N-(cyclopropylmethyl)-N-propylacetamide] belongs 1.45%. Next, `CC(Cl)C(=O)NCCc1cnc2c(Cl)cnn2c1` (stereo not shown) [7-M18, 2-chloro-N-(2-{3-chloropyrazolo[1,5-a]pyrimidin-6-yl}ethyl)propanamide]: 90.6%; `O=C(CCl)N(Cc1ccsc1)C1CC1` [5-N18, 2-chloro-N-cyclopropyl-N-[(thiophen-3-yl)methyl]acetamide]: 1.23%; `C=CC(=O)NC(C)c1ccc(-n2nc(C)cc2C)c(F)c1` (stereo not shown) [3-P17, N-{1-[4-(3,5-dimethyl-1H-pyrazol-1-yl)-3-fluorophenyl]ethyl}prop-2-enamide]: 76.1%. Turning to `NC(=O)c1cc(-c2ccccc2)sc1NC(=O)CCl` [6-M14, 2-(2-chloroacetamido)-5-phenylthiophene-3-carboxamide], the viability at 48 h, 25 µM is 0.446%.

In the case of `Cc1cccc(Cc2cnc(NC(=O)CCl)s2)c1` [4-B09, 2-chloro-N-{5-[(3-methylphenyl)methyl]-1,3-thiazol-2-yl}acetamide], the viability at 48 h, 25 µM was -0.447%. With `O=C(CCl)COc1ccc(Cl)cc1` [10-M17, 1-chloro-3-(4-chlorophenoxy)propan-2-one], the viability at 48 h, 25 µM was found to be 26.1%. For `C=CC(=O)NC1(C(N)=O)CCCC1C` (stereo not shown) [3-B09, 2-methyl-1-(prop-2-enamido)cyclopentane-1-carboxamide], the viability at 48 h, 25 µM is 54.5%. To `CC1CN(C(=O)C(C#N)=Cc2c(Cl)cccc2Cl)CC(C)O1` (stereo not shown) [8-O12, 3-(2,6-dichlorophenyl)-2-(2,6-dimethylmorpholine-4-carbonyl)prop-2-enenitrile] belongs 60.2%; to `Cc1ccc(NC(=O)C(C#N)=Cc2cccc(C(F)(F)F)c2)c(C)c1` [8-H11, 2-cyano-N-(2,4-dimethylphenyl)-3-[3-(trifluoromethyl)phenyl]prop-2-enamide], 75%; to `N#CC(=Cc1ccc2c(c1)OCO2)C(=O)NCc1ccccc1` [8-A09, 3-(1,3-dioxaindan-5-yl)-N-benzyl-2-cyanoprop-2-enamide], 85.6%.

With `C=CC(=O)NC1CC2(CCC(C(=O)O)CC2)C1` (stereo not shown) [2-I16, 2-(prop-2-enamido)spiro[3.5]nonane-7-carboxylic acid], the viability at 48 h, 25 µM was found to be 92.8%. With `C=CC(=O)N1CCC(C(=O)Nc2cnn(COC)c2)CC1` [2-H10, N-[1-(methoxymethyl)-1H-pyrazol-4-yl]-1-(prop-2-enoyl)piperidine-4-carboxamide], the viability at 48 h, 25 µM was found to be 79%. On to `CC(Cl)C(=O)NCC(NS(=O)(=O)N(C)C)C1CCCC1` (stereo not shown) [7-G16, 2-chloro-N-{2-cyclopentyl-2-[(dimethylsulfamoyl)amino]ethyl}propanamide], for which the viability at 48 h, 25 µM was 91.3%. To `C=CCNC(=O)C(C#N)=Cc1ccc(C(=O)O)cc1` [8-J04, 4-{2-cyano-2-[(prop-2-en-1-yl)carbamoyl]eth-1-en-1-yl}benzoic acid] belongs 87.1%.

With `CC(Cl)C(=O)N(C)C1CCN(C(=O)c2ccccc2)CC1` (stereo not shown) [6-B18, N-(1-benzoylpiperidin-4-yl)-2-chloro-N-methylpropanamide], the viability at 48 h, 25 µM turned out to be 95.9%.

Take `Cc1cc(Cl)ccc1OC(C)C(=O)N1CCSSCC1` (stereo not shown) [10-J21, 2-(4-chloro-2-methylphenoxy)-1-(1,2,5-dithiazepan-5-yl)propan-1-one]: the viability at 48 h, 25 µM is 110%.

For `C=CC(=O)NCc1noc2c1CC(C)(C)CC2` [2-L07, N-[(5,5-dimethyl-4,5,6,7-tetrahydro-1,2-benzoxazol-3-yl)methyl]prop-2-enamide], the viability at 48 h, 25 µM is 60%. `CCCCNC(=O)C(C#N)=Cc1cc(C)cc(C)c1` [9-C03, N-butyl-2-cyano-3-(3,5-dimethylphenyl)prop-2-enamide]: the viability at 48 h, 25 µM was determined as 122%. To `CC(Cl)C(=O)NCC(c1ccccc1)c1nnc[nH]1` (stereo not shown) [7-G15, 2-chloro-N-[2-phenyl-2-(4H-1,2,4-triazol-3-yl)ethyl]propanamide] belongs 114%; to `COc1ccccc1NC(=O)c1ccc(NC(=O)C(C)Cl)cc1` (stereo not shown) [5-C17, 4-(2-chloropropanamido)-N-(2-methoxyphenyl)benzamide], 58%; to `C=CCNC(=O)C(C#N)=Cc1ccc(C)c(C)c1` [9-D21, 2-cyano-3-(3,4-dimethylphenyl)-N-(prop-2-en-1-yl)prop-2-enamide], 110%. `C=CC(=O)N1CCC(c2cnn(C)c2)CC1` [2-I10, 1-[4-(1-methyl-1H-pyrazol-4-yl)piperidin-1-yl]prop-2-en-1-one]: the viability at 48 h, 25 µM is 83.2%. To `C=CC(=O)N(C)Cc1ncc(C(F)(F)F)n1C` [2-D19, N-methyl-N-{[1-methyl-5-(trifluoromethyl)-1H-imidazol-2-yl]methyl}prop-2-enamide] belongs 70.6%. To `Cc1ccc(-n2c(C)cc(C=C(C#N)C(=O)N3CCCCC3)c2C)cc1` [9-O21, 3-[2,5-dimethyl-1-(4-methylphenyl)-1H-pyrrol-3-yl]-2-(piperidine-1-carbonyl)prop-2-enenitrile] belongs 87.8%; to `C=CC(=O)NCC(C)Cn1nccc1C` (stereo not shown) [1-H14, N-[2-methyl-3-(5-methyl-1H-pyrazol-1-yl)propyl]prop-2-enamide], 87.8%; to `C=CC(=O)Nc1ccc(C(=O)N2CCCCC2c2noc(C)n2)cc1` (stereo not shown) [2-C20, N-{4-[2-(5-methyl-1,2,4-oxadiazol-3-yl)piperidine-1-carbonyl]phenyl}prop-2-enamide], 77.3%.

Take `C=CC(=O)N1CCC(c2nnc3n2CCCC3)CC1` [2-J21, 1-(4-{5H,6H,7H,8H-[1,2,4]triazolo[4,3-a]pyridin-3-yl}piperidin-1-yl)prop-2-en-1-one]: the viability at 48 h, 25 µM was 67.6%. Next, `CC(NC(=O)CCl)c1ccc2c(c1)CCCC2` (stereo not shown) [4-B03, 2-chloro-N-[1-(5,6,7,8-tetrahydronaphthalen-2-yl)ethyl]acetamide]: 1.06%; `CCOc1cccc(N2CCN(C(=O)C(C)Cl)CC2)n1` (stereo not shown) [7-G07, 2-chloro-1-[4-(6-ethoxypyridin-2-yl)piperazin-1-yl]propan-1-one]: 83.5%; `C=CC(=O)Nc1cc(S(=O)(=O)N(C)C)cc(C)c1C` [1-K11, N-[5-(dimethylsulfamoyl)-2,3-dimethylphenyl]prop-2-enamide]: 71.3%. Next, `N#CC(=Cc1cccs1)C(=O)NCc1ccco1` [9-L08, 2-cyano-N-[(furan-2-yl)methyl]-3-(thiophen-2-yl)prop-2-enamide]: 110%; `Cc1nn(C)c(C)c1C=C(C#N)C(=O)Nc1ccccc1Cl` [9-F11, N-(2-chlorophenyl)-2-cyano-3-(1,3,5-trimethyl-1H-pyrazol-4-yl)prop-2-enamide]: 110%; `C=CC(=O)N1CCC(C(=O)NC2CCCc3cc(F)ccc32)CC1` (stereo not shown) [2-K18, N-(6-fluoro-1,2,3,4-tetrahydronaphthalen-1-yl)-1-(prop-2-enoyl)piperidine-4-carboxamide]: 94.2%.

Regarding `CN(CCNC(=O)CCl)S(=O)(=O)c1cccs1` [6-H11, 2-chloro-N-[2-(N-methylthiophene-2-sulfonamido)ethyl]acetamide], the viability at 48 h, 25 µM amounted to 11.1%. To `C=CC(=O)N(C)Cc1cc2sccc2n1C` [2-B19, N-methyl-N-({4-methyl-4H-thieno[3,2-b]pyrrol-5-yl}methyl)prop-2-enamide] belongs 75.1%. To `COc1ccc(C)cc1NC(=O)C(C)Cl` (stereo not shown) [5-P22, 2-chloro-N-(2-methoxy-5-methylphenyl)propanamide] belongs 108%; to `C=CC(=O)N1CCC(n2cnc3ccccc3c2=O)C1` (stereo not shown) [3-C03, 3-[1-(prop-2-enoyl)pyrrolidin-3-yl]-3,4-dihydroquinazolin-4-one], 63.6%.

For `CC(Cl)C(=O)N1CCN(Cc2ccc(C(F)(F)F)cc2)C(=O)C1` (stereo not shown) [6-N19, 4-(2-chloropropanoyl)-1-{[4-(trifluoromethyl)phenyl]methyl}piperazin-2-one], the viability at 48 h, 25 µM stood at 99.6%. Next, `C=CC(=O)NC(C)Cn1cc(C(=O)O)cn1` (stereo not shown) [3-D10, 1-[2-(prop-2-enamido)propyl]-1H-pyrazole-4-carboxylic acid]: 96%; `C=CC(=O)N(Cc1cnc(C2CC2)o1)C1CCCCC1C` (stereo not shown) [1-D15, N-[(2-cyclopropyl-1,3-oxazol-5-yl)methyl]-N-(2-methylcyclohexyl)prop-2-enamide]: 118%; `O=C(CCl)Nc1ccnn1Cc1cccs1` [5-O13, 2-chloro-N-{1-[(thiophen-2-yl)methyl]-1H-pyrazol-5-yl}acetamide]: 0.591%. Next, `COc1ccc2nnc(CNC(=O)C(C)Cl)n2n1` (stereo not shown) [7-J15, 2-chloro-N-({6-methoxy-[1,2,4]triazolo[4,3-b]pyridazin-3-yl}methyl)propanamide]: 90.2%; `CC(Cl)C(=O)N1CC(S(=O)(=O)Nc2ccccc2)C1` (stereo not shown) [7-G05, 1-(2-chloropropanoyl)-N-phenylazetidine-3-sulfonamide]: 102%; `C=CC(=O)N1CCC(C(=O)NC2CC2(C)C)CC1` (stereo not shown) [3-C07, N-(2,2-dimethylcyclopropyl)-1-(prop-2-enoyl)piperidine-4-carboxamide]: 30.9%. Next, `CC(Cl)C(=O)Nc1ccc2c(c1)ncn2-c1ccccc1` (stereo not shown) [6-N13, 2-chloro-N-(1-phenyl-1H-1,3-benzodiazol-5-yl)propanamide]: 105%.
